# Measured values from ChEMBL document CHEMBL4715789, “Identification of a Potential Antimalarial Drug Candidate from a Series of 2-Aminopyrazines by Optimization of Aqueous Solubility and Potency across the Parasite Life Cycle” (J Med Chem, 2016).
# What was measured:
# [1] = Selectivity index, ratio of IC50 for cytotoxicity against CHO cells by MTT assay to IC50 for antiplasmodial activity against multidrug-sensitive Plasmodium falciparum NF54 infected in human erythrocytes; format: toxicity, cell-based; conditions: Chinese hamster, read-out: Ratio IC50
# [2] = Aqueous solubility of compound in pH 2 0.01M HCl incubated for 2 hrs under shaking condition by shake-flask method based HPLC-DAD analysis; format: physicochemical
# [3] = Aqueous solubility of compound in pH 6.5 PBS incubated for 2 hrs under shaking condition by shake-flask method based HPLC-DAD analysis; format: physicochemical
# [4] = Metabolic stability in human liver microsomes assessed as compound remaining at 0.1 uM measured after 30 mins in presence of cofactor NADPH by LC-MS/MS analysis; format: ADME, Microsome; conditions: read-out: Stabilty
# [5] = Metabolic stability in rat liver microsomes assessed as compound remaining at 0.1 uM measured after 30 mins in presence of cofactor NADPH by LC-MS/MS analysis; format: ADME, Microsome; conditions: read-out: Stabilty
# [6] = Metabolic stability in mouse liver microsomes assessed as compound remaining at 0.1 uM measured after 30 mins in presence of cofactor NADPH by LC-MS/MS analysis; format: ADME, Microsome; conditions: read-out: Stabilty
# [7] = system: Plasmodium berghei; assay: Antiplasmodial activity against Plasmodium berghei ANKA infected in NMRI mouse model assessed as mean survival days at 10 mg/kg, po qd for 4 consecutive day; format: functional; conditions: time 4 day
# [8] = system: Plasmodium berghei; assay: Antiplasmodial activity against Plasmodium berghei ANKA infected in NMRI mouse model assessed as mean survival days at 3 mg/kg, po qd for 4 consecutive day; format: functional; conditions: time 4 day
# [9] = system: Plasmodium berghei; assay: Antiplasmodial activity against Plasmodium berghei ANKA infected in NMRI mouse model assessed as reduction in parasitemia administered orally once a day for 4 consecutive days measured at day 7 post infection by flow cytometry analysis; format: functional; conditions: po, 96 h, time 4 day
# [10] = system: Plasmodium falciparum; assay: Antiplasmodial activity against Plasmodium falciparum 3D70087/N9 infected in NOD-SCID IL2Rgamma null mouse assessed as reduction in parasitemia administered orally on day 3 to 6 post-infection and measured day 7 post infection by TER-119-PE and […] dye based flow cytometry; format: functional; conditions: 3D70087/N9, po, 120 h, time 5 day
# [11] = system: Plasmodium falciparum; assay: Antimalarial activity against Plasmodium falciparum 3D70087/N9 infected in NOD-SCID IL2Rgamma null mouse assessed as blood AUC level require to show 90% reduction in parasitemia administered orally on day 3 to 6 post-infection and measured day 7 post infection; format: functional, organism-based; conditions: time 5.0 day
# [12] = AUC(app) in NMRI mouse plasma infected with Plasmodium berghei ANKA at 3 mg/kg, po qd for 4 consecutive days and measured post last dose; format: ADME, organism-based; conditions: time 4 day
# [13] = Cmax(app) in NMRI mouse plasma infected with Plasmodium berghei ANKA at 3 mg/kg, po qd for 4 consecutive days and measured post last dose; format: ADME, organism-based; conditions: time 4 day
# [14] = Apparent average plasma concentration in NMRI mouse plasma infected with Plasmodium berghei ANKA at 3 mg/kg, po qd for 4 consecutive days and measured post last dose; format: ADME, organism-based; conditions: in vivo, 96 h, time 4 day
# [15] = Half-life in Sprague-dawley rat at 20 mg/kg, po by LC-MS/MS analysis; format: ADME, organism-based; conditions: in vivo
# [16] = Oral bioavailability in Sprague-dawley rat at 20 mg/kg by LC-MS/MS analysis; format: ADME, organism-based; conditions: in vivo
# [17] = system: Plasmodium falciparum; assay: Antiplasmodial activity against late stage (IV/V) Plasmodium falciparum NF54 gametocytes incubated for 48 hrs by luciferase reporter gene assay; format: functional, organism-based; conditions: NF54, 48 h
# [18] = system: Plasmodium falciparum; assay: Antiplasmodial activity against early stage (II/III) Plasmodium falciparum NF54 gametocytes incubated for 48 hrs by luciferase reporter gene assay; format: functional, organism-based; conditions: NF54, 48 h
# [19] = system: Plasmodium falciparum; assay: microbe, parasite or virus in culture; conditions: NF54, Erythrocyte
# Description: Antiplasmodial activity against multidrug-sensitive Plasmodium falciparum NF54 infected in human erythrocytes assessed as reduction in [3H]hypoxanthine incorporation preincubated for 48 hrs followed by [3H]hypoxanthine addition and measured after 24 hrs by liquid scintillation counting method
# [20] = system: Plasmodium falciparum; assay: microbe, parasite or virus in culture; conditions: K1, Erythrocyte
# Description: Antiplasmodial activity against multidrug-resistant Plasmodium falciparum K1 infected in erythrocytes assessed as reduction in [3H]hypoxanthine incorporation preincubated for 48 hrs followed by [3H]hypoxanthine addition and measured after 24 hrs by liquid scintillation counting method
# [21] = system: Plasmodium berghei; assay: Antiplasmodial activity against Plasmodium berghei ANKA infected in NMRI mouse assessed as reduction in parasitemia at 10 mg/kg, po qd for 4 consecutive days measured at day 7 post infection by flow cytometry analysis; format: functional; design: scale not given: the % may be the effect or the level left; conditions: time 4 day
# [22] = system: Plasmodium berghei; assay: Antiplasmodial activity against Plasmodium berghei ANKA infected in NMRI mouse assessed as reduction in parasitemia at 3 mg/kg, po qd for 4 consecutive days measured at day 7 post infection by flow cytometry analysis; format: functional; design: scale not given: the % may be the effect or the level left; conditions: time 4 day
# [23] = system: Plasmodium berghei; assay: Antiplasmodial activity against luciferase expressing Plasmodium berghei sporozoites infected in human HepG2 cells preincubated with compound for 18 hrs followed by plasmodium infection measured after 48 hrs by bioluminescence assay; format: functional, organism-based
# [24] = system: Plasmodium berghei; assay: Antiplasmodial activity against Plasmodium berghei ANKA infected in NMRI mouse model assessed as mean survival days at 30 mg/kg, po qd for 4 consecutive days; format: functional; conditions: time 4 day
# [25] = target: Voltage-gated inwardly rectifying potassium channel KCNH2 (Homo sapiens, UniProt Q12809); assay: Inhibition of human ERG by IonWorks patch clamp electrophysiology method
# Chain of Voltage-gated inwardly rectifying potassium channel KCNH2 (Q12809 whole entry): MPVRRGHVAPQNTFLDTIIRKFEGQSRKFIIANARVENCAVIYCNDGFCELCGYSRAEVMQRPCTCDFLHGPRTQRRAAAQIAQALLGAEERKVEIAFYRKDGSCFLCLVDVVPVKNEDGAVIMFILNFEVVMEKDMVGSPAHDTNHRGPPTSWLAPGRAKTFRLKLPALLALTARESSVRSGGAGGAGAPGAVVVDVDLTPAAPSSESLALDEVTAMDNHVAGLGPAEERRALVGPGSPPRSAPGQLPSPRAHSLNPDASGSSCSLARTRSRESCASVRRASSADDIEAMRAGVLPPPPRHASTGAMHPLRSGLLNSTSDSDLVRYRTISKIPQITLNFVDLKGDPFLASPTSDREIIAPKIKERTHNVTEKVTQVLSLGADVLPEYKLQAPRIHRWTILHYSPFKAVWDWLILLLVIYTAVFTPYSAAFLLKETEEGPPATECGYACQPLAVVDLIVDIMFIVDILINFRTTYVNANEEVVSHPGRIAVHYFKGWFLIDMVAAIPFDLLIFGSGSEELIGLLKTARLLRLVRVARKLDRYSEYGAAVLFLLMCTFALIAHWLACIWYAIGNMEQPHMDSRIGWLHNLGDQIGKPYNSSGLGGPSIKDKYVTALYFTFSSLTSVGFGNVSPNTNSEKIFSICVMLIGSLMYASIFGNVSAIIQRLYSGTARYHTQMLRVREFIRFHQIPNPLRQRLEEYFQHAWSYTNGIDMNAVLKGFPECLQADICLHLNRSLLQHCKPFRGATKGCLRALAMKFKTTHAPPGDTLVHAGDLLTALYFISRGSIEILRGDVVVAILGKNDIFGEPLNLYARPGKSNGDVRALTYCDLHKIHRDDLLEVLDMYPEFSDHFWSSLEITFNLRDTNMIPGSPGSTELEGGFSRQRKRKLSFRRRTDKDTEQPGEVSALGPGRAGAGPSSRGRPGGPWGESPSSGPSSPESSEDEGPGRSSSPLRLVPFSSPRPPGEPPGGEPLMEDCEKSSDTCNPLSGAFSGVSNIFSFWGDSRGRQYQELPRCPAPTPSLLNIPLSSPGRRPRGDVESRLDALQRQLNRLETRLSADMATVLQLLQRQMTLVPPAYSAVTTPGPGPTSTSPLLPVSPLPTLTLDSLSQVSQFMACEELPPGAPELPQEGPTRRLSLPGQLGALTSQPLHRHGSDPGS
# [26] = system: hERG (KCNH2); assay: Selectivity ratio of IC50 for inhibition of human ERG by IonWorks patch clamp electrophysiology method to IC50 for antiplasmodial activity against multidrug-sensitive Plasmodium falciparum NF54 infected in human erythrocytes; format: toxicity, cell-based; conditions: read-out: Ratio IC50
Structure (SMILES),selectivity ratio [1],solubility thermodynamic at 2 h [2] [µM],solubility thermodynamic at 2 h [3] [µM],"remaining at 0.5 h, 0.1 µM [4] [%]","remaining at 0.5 h, 0.1 µM [5] [%]","remaining at 0.5 h, 0.1 µM [6] [%]",MSD [7] [days],MSD [8] [days],ED90 [10] [mg/kg],AUC [11] [ng·h/mL],AUC at 96 h [12] [µM·h],Cmax [13] [nM],Cave [14] [nM],half-life [15] [h],bioavailability [16] [%],IC50 [17] [nM],IC50 [18] [nM],IC50 [19] [nM],IC50 [20] [nM],Activity [22] [%],other results
NC(=O)c1ccc(-c2cnc(N)c(-c3ccc(C(F)(F)F)cc3)n2)cc1,> 1800,80,< 5,> 90,> 90,> 90,>30,20,< 0.1,< 75,42.3,4000,1800,7,25,237,754,14,13,–,ED90 [9]: 0.3 mg/kg
Nc1ncc(-c2ccc(C(=O)O)cc2)nc1-c1ccc(C(F)(F)F)nc1,> 1800,191,178,> 90,> 90,> 90,10,7,< 0.5,< 440,30.8,2290,1480,3.9,38,845,168,19,26,93,Activity [21]: 99.8%; IC50 [23]: 528 nM
CC(C)(C)N1CCN(C(=O)c2ccc(-c3cnc(N)c(-c4ccc(C(F)(F)F)nc4)n3)cc2)CC1,–,200,113,–,–,–,–,14,–,–,4.34,1520,570,–,–,–,–,8.9,6.4,88,–
"O[C@@H](c1cc(C(F)(F)F)nc2c(C(F)(F)F)cccc12)[C@H]1CCCCN1 [(S,R)-MEFLOQUINE]",–,–,–,–,–,–,–,–,–,–,–,–,–,–,–,–,–,–,–,–,MSD [24]: 29 days
Nc1ncc(-c2ccc(C(=O)N3CCC(N)C3)cc2)nc1-c1ccc(C(F)(F)F)cc1 (configuration not stated),–,165,102,–,–,–,–,7,–,–,–,–,–,–,–,–,–,19,12,71,IC50 [25]: 10000 nM; selectivity ratio [26]: 526
Nc1ncc(-c2ccc(C(=O)N3CCC(O)C3)cc2)nc1-c1ccc(C(F)(F)F)cc1 (configuration not stated),–,129,77,> 90,> 90,> 90,–,8,–,–,34.7,3610,2060,–,–,–,–,9.6,6.8,99.6,–
